Where “and” joins values, the source holds several entries; their conditions need not be identical. Identical values can stand only once. Like-named read-outs stand apart in the source and are kept apart here.
Assay: Pharmacokinetic analyses in mouse
Assay type: in vivo
Details: for AUC(0-t): read-out: AUC0-24h; for AUC(0-inf): read-out: AUC0-inf
Protocol: Compound concentrations in plasma aliquots were measured by quantitative HPLC-MS/MS using an internal standard. Calibration and quality control samples were prepared using blank plasma from untreated animals. Samples were precipitated with acetonitrile and injected into a HPLC system (Agilent 1200). Separation was performed by gradients of 5 mmol/L ammonium acetate pH 4.0 and acetonitrile with 0.1% formic acid on a 2.1 mm by 50 mm XBridge BEH C18 reversed-phase column with 2.5 µm particles (Waters). The HPLC was interfaced by ESI operated in positive ionisation mode to a triple quadrupole mass spectrometer (5000 or 6500+ Triple Quad System, SCIEX) operated in multiple reaction monitoring mode. Transitions were 532.4 to 432.8 m/z for BI01810284, 525.6 to 425.7 m/z for BI01802983 and 1021.6 to 624.2 m/z for BI01580883. Chromatograms were analyzed with Analyst (SCIEX) and pharmacokinetic parameters were calculated by non-compartmental analysis using BI-proprietary software.

[1] = 5 mg/kg i.v., individual animals
[2] = 30 mg/kg p.o., individual animals
[3] = NMRI, mouse, plasma, iv, 5 mg/kg, NMRI mice, i.v., 5 mg/kg, PK study
[4] = NMRI, mouse, plasma, po, 30 mg/kg, NMRI mice, p.o., 30 mg/kg, PK study
[5] = mouse, 5 mg/kg i.v., NCA, individual animals, 5 mg/kg
[6] = mouse, 30 mg/kg p.o., NCA, individual animals, 30 mg/kg

For `Cc1ncsc1-c1ccc(C(CCC(C)CCN2CCC(c3ccc4c(c3)n(C3CCCC3)c3nc(=O)c5c(Br)cccc5n43)CC2)NC(=O)C2CC(O)CN2C(=O)C(NC(=O)C2(F)CC2)C(C)(C)C)cc1` (stereo not shown) [ACBI2], the AUC [1] was 41.8 µM·h and 38 µM·h, the AUCinf [1] was 42.3 µM·h and 38.4 µM·h and the Concentration (5 mg/kg i.v., time 0.25 h, individual animals) was 6.8 µM. The Concentration (5 mg/kg i.v., time 1 h, individual animals) was 5.13 µM, the Concentration (5 mg/kg i.v., time 6 h, individual animals) was 1.22 µM and the Concentration (5 mg/kg i.v., time 24 h, individual animals) was 0.0949 µM. The F (30 mg/kg p.o. vs 5 mg/kg i.v., individual animals) was 23.8% and 20.9%, the AUC [2] was 53.9 µM·h and 47.2 µM·h and the AUCinf [2] was 55 µM·h and 48.3 µM·h. The MRT (NMRI, mouse, plasma, iv, 5 mg/kg, NMRI mice, PK study) was 3.8 h, the AUC(0-t) [3] was 38 µM·h and the AUC(0-inf) [3] was 38 µM·h. For the same compound, the clearance (NMRI, mouse, plasma, iv, 5 mg/kg, NMRI mice, i.v., 5 mg/kg, PK study, read-out: Clearance) was 2 mL/min/kg, the Vd (NMRI, mouse, plasma, iv, 5 mg/kg, NMRI mice, i.v., 5 mg/kg, PK study, read-out: Vss) was 0.47 L/kg and the MRT (NMRI, mouse, plasma, po, 30 mg/kg, NMRI mice, PK study) was 6.1 h. It also gave an AUC(0-t) [4] of 50 µM·h, an AUC(0-inf) [4] of 51 µM·h and a bioavailability (NMRI, mouse, plasma, po, 30 mg/kg, NMRI mice, p.o., 30 mg/kg, PK study, read-out: Bioavailability) of 22%. The AUC(0-t) (NMRI, mouse, plasma, po, 80 mg/kg, NMRI mice, p.o., 80 mg/kg, Xenograft study) was 84 µM·h, the Plasma concentration (mouse, 5 mg/kg i.v., 0.25 h, individual animals, 5 mg/kg) was 7.53 µM and 7.36 µM and the Plasma concentration (mouse, 5 mg/kg i.v., 1 h, individual animals, 5 mg/kg) was 6 µM and 5.66 µM. The Plasma concentration (mouse, 5 mg/kg i.v., 6 h, individual animals, 5 mg/kg) was 1.62 µM and 1.38 µM, the Plasma concentration (mouse, 5 mg/kg i.v., 24 h, individual animals, 5 mg/kg) was 0.0855 µM and 0.0743 µM and the AUC [5] was 41.8 µM·h and 38 µM·h. The AUCinf [5] was 42.3 µM·h and 38.4 µM·h, the CL [5] was 1.85 mL/min/kg and 2.04 mL/min/kg and the Vss [5] was 0.426 L/kg and 0.449 L/kg. For the same compound, the Plasma concentration (mouse, 30 mg/kg p.o., 0.333 h, individual animals, 30 mg/kg) was 0.968 µM and 1.53 µM, the Plasma concentration (mouse, 30 mg/kg p.o., 1 h, individual animals, 30 mg/kg) was 4.18 µM and 4.16 µM and the Plasma concentration (mouse, 30 mg/kg p.o., 2 h, individual animals, 30 mg/kg) was 4.46 µM and 4.88 µM. For the same compound, the Plasma concentration (mouse, 30 mg/kg p.o., 6 h, individual animals, 30 mg/kg) was 3.38 µM and 2.65 µM, the Plasma concentration (mouse, 30 mg/kg p.o., 24 h, individual animals, 30 mg/kg) was 0.173 µM and 0.175 µM and the AUC [6] was 53.9 µM·h and 47.2 µM·h. For the same compound, the AUCinf [6] was 55 µM·h and 48.3 µM·h, the F [6] was 23.8% and 20.9% and the concentration at 0.25 h (mouse, plasma, intravenous, 5 mg/kg, 5 mg/kg i.v., time 0.25 h, individual animals, read-out: Concentration) was 7.53 µM. It also gave a concentration at 1 h (mouse, plasma, intravenous, 5 mg/kg, 5 mg/kg i.v., time 1 h, individual animals, read-out: Concentration) of 6 µM.
